Here are results for two compounds from patent publication US9023789B2, “Amylin analogs and pharmaceutical compositions thereof” (Novo Nordisk A/S, priority 2012, dated 2015).

For orientation: IC50 means the concentration at which inhibition is half-maximal. The EC50 is the concentration needed to bring the measured effect to its halfway point.

Structures are written as SMILES. Values after ≈ are worked out from the molar mass of the structure shown. Like-named read-outs stand apart in the source and are kept apart here. Numbered stars: 1 amine (or outer) side, 2 acyl side, 3 side chain; on linkers, the order of the positions; unused ones are H or OH. Bridge positions count the residues as written; N and C are the ends. Side chains are listed from the residue outwards. Peptide text beside a SMILES is read from it. * marks the point of attachment. C20 diacid = O=C(O)CCCCCCCCCCCCCCCCCCC(=O)*; γGlu = O=C(O)[C@H](CCC(=O)[*:2])N[*:1]; AEEA = NCCOCCOCC(=O)O Some results are limits rather than exact numbers.

Data set [1] concerns the target T1, human amylin receptor (membranes from Amylin 3(a)/CRE-luc cells) (Homo sapiens, UniProt O60896+P30988).
T1 construct: expressed in transfected cells
T1 sequence (P30988 25-474): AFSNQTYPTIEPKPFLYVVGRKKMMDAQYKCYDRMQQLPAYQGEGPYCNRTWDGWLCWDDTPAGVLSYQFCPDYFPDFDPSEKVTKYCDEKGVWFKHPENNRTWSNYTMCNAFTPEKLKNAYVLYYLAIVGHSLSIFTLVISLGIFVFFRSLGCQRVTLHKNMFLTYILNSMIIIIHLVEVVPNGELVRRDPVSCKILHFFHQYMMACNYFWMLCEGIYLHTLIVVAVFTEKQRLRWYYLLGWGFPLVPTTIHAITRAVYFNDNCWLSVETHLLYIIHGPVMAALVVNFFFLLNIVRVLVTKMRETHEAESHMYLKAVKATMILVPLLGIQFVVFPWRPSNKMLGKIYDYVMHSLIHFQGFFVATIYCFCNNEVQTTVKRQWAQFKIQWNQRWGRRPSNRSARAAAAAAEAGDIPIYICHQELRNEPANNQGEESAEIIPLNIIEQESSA
T1 sequence (O60896 24-148 partner): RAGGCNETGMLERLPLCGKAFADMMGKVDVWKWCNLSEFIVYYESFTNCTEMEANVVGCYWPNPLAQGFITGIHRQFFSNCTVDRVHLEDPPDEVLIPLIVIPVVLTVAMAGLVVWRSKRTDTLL
The data set is described as follows: ASSAY (V) binding to the human amylin receptor (SPA, 125I-rat amylin).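 On all read-outs here: competition binding of cell membranes (35 ng/µL) mixed with SPA beads in 384-well plates at 40 µL total volume, read by scintillation counting.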 Conditions: for IC50: Table 4, read-out: hAmylin-R bind IC50.

Data set [2] deals with T2, human amylin 3(a) receptor (human calcitonin receptor + RAMP-3) in BHK570 cells (Homo sapiens, UniProt O60896+P30988).
T2 construct: expressed in transfected cells
In words: ASSAY (II)a functional assay, human amylin receptor (CRE luciferase). Conditions: for EC50: human amylin receptor functional potency, assay (II), read-out: hAmylin-R funct. EC50. Type of data set: cell-based. The method, boiled down: (§1)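 Read-out: CRE-driven luciferase luminescence, single photon counting, after 30 min at room temperature with LucLite. BHK cells expressed calcitonin receptor alone or with RAMP-3 (amylin 3(a)). Cells were stimulated 3 h at 37° C in DMEM, 10% FBS, 10 mM Hepes, pH 7.4.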

For the next data set, the target named is T3, rat calcitonin receptor (Rattus norvegicus, UniProt P32214).
T3 construct: expressed in transfected cells; host or cells: BHK tk'ts 13 (transient, FuGENE 6), membranes
T3 sequence (P32214 25-479 isoform P32214-2 limits assumed): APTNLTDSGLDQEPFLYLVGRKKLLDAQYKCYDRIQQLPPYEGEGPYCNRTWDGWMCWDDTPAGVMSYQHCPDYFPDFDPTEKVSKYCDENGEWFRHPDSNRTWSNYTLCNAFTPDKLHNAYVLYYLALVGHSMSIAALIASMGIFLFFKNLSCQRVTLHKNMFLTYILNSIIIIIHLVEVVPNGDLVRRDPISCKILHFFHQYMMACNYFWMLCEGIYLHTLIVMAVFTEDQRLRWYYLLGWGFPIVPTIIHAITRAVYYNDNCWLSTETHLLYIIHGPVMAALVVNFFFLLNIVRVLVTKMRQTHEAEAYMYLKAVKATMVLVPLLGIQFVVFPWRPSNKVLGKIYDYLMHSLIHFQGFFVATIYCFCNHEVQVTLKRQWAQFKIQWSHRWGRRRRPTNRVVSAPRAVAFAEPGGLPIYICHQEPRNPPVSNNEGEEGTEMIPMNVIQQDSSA
The data set is described as follows: ASSAY (VIII) binding to the rat calcitonin receptor. Conditions: Table 7, read-out: rCTR bind IC50. The method, boiled down: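 BHK tk′ts 13 cells, transient rat calcitonin receptor transfection; DMEM + 10% FBS; harvest ~48 h post-transfection; membrane prep.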

A short description of data set [3]: ASSAY (IV) determination of solubility. Type of data set: physicochemical. A digest of the protocol:
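Solubility measured by UPLC of supernatant after centrifugation, following 18 h at room temperature. Peptide ([…] in water) was diluted 1:1 into 100 mM glycylglycine (pH 3.0, 4.0, 5.0) or bistrispropane (pH 6.0-8.0).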

The target of data set [4] is T4, human calcitonin (a) receptor in BHK570 cells (Homo sapiens, UniProt P30988).
T4 construct: expressed in transfected cells
T4 sequence (P30988 25-474): T1 sequence (P30988 25-474)
The data set is described as follows: ASSAY (II)a functional assay, human calcitonin receptor (CRE luciferase). Type of data set: cell-based. Conditions: read-out: hCTR funct. EC50. The method, boiled down:
as §1

The target in data set [5] is T5, human calcitonin receptor (Homo sapiens, UniProt P30988).
T5 construct: expressed in transfected cells
T5 sequence (P30988 25-474): T1 sequence (P30988 25-474)
The data set is described as follows: ASSAY (VII) binding to the human calcitonin receptor (SPA, 125I-Calcitonin).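 Further: cell membranes (35 ng/µL) combined with SPA beads in 40 µL of pH 7.4 Hepes buffer, 384-well format, signal counted on a TopCounter instrument.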 Conditions: read-out: hCTR bind IC50.

Setting [6] is: Table 5, selectivity, hCTR bind IC50 / hAmylin-R bind IC50.
Setting [7] is: Table 5a, selectivity, hCTR bind IC50 / hAmylin-R bind IC50.
Setting [8] is: Table 5b, selectivity, hCTR bind IC50 / hAmylin-R bind IC50.
The mark [9] stands for this setting: Table 7, human binding selectivity, included for comparison.
The mark [10] stands for this setting: Table 7a (preferred compounds), human binding selectivity, included for comparison.
Setting [11] is: ratio of human calcitonin receptor binding IC50 to human amylin receptor binding IC50.
[12] abbreviates: hCTR funct. EC50 divided by hAmylin-R funct. EC50.
The mark [13] stands for this setting: hCTR funct. EC50 over hAmylin-R funct. EC50.
[14] abbreviates: human functional selectivity: hCTR funct. EC50 / hAmylin-R funct. EC50.
[15] abbreviates: bistrispropane buffer, pH 6.5, read-out: Solubility pH 6.5 Concentration.
[16] abbreviates: bistrispropane buffer, pH 7.5, read-out: Solubility pH 7.5 Concentration.
[17] abbreviates: bistrispropane buffer, pH 6.0, read-out: Solubility pH 6.0 Concentration.
The mark [18] stands for this setting: bistrispropane buffer, pH 7.0, read-out: Solubility pH 7.0 Concentration.
Where [19] appears, read: bistrispropane buffer, pH 8.0, read-out: Solubility pH 8.0 Concentration.
Setting [20] is: glycylglycine buffer, pH 3.0, read-out: Solubility pH 3.0 Concentration.
Where [21] appears, read: glycylglycine buffer, pH 4.0, read-out: Solubility pH 4.0 Concentration.
Where [22] appears, read: glycylglycine buffer, pH 5.0, read-out: Solubility pH 5.0 Concentration.

Take `CC[C@H](C)[C@H](NC(=O)[C@H](C)NC(=O)CNC(=O)[C@H](Cc1ccccc1)NC(=O)[C@H](CC(N)=O)NC(=O)[C@@H]1CCCN1C(=O)[C@H](CO)NC(=O)[C@H](CO)NC(=O)[C@H](Cc1c[nH]cn1)NC(=O)[C@H](CCCNC(=N)N)NC(=O)[C@H](CC(C)C)NC(=O)[C@H](Cc1ccccc1)NC(=O)[C@H](CC(N)=O)NC(=O)[C@H](C)NC(=O)[C@H](CC(C)C)NC(=O)[C@H](CCCNC(=N)N)NC(=O)[C@H](CCC(N)=O)NC(=O)[C@@H](NC(=O)[C@H](C)NC(=O)[C@@H]1CSSC[C@H](NC(=O)[C@H](CCCNC(=N)N)NC(=O)[C@@H](N)CCCCNC(=O)CC[C@H](NC(=O)CCCCCCCCCCCCCCCCCCC(=O)O)C(=O)O)C(=O)N[C@@H](CC(N)=O)C(=O)N[C@@H]([C@@H](C)O)C(=O)N[C@@H](C)C(=O)N[C@@H]([C@@H](C)O)C(=O)N1)[C@@H](C)O)C(=O)N1CCC[C@H]1C(=O)N[C@@H](CO)C(=O)N[C@@H](CO)C(=O)N[C@H](C(=O)N[C@@H](CC(N)=O)C(=O)N[C@H](C(=O)NCC(=O)N[C@@H](CO)C(=O)N[C@@H](Cc1c[nH]cn1)C(=O)N[C@H](C(=O)N[C@@H](Cc1ccc(O)cc1)C(N)=O)[C@@H](C)O)C(C)C)[C@@H](C)O` [Example 44] (H-K([γGlu-C20 diacid])RCNTATCATQRLANFLRHSSPNFGAIPSSTNVGSHTY-NH2; disulfide 3-8): the IC50 in data set [1] was determined as 0.275 nM; on rat calcitonin receptor, 19.7 nM; in data set [5], 4.87 nM. For the same compound, the “Ratio hCT/hAmylin binding” value in data set [1] (setting [6]), in data set [1] (setting [7]), in data set [1] (setting [8]), in data set [1] (setting [9]), in data set [1] (setting [10]) and in data set [1] (setting [11]) was 17.7 each time. In addition, the “Ratio hCT/hAmylin funct.” value in data set [2] (setting [12]), in data set [2] (setting [13]) and in data set [2] (setting [14]) was 24.0 throughout. Moreover, the 50% effective concentration (EC50) came out at 0.198 nM in data set [2] and 4.75 nM in data set [4]. The solubility at 18 h is not below 200 µM in data set [3] (setting [15]); 87 µM (≈ 397 µg/mL) in data set [3] (setting [16]); not below 200 µM in data set [3] (setting [17]); not below 200 µM in data set [3] (setting [18]); 39 µM (≈ 178 µg/mL) in data set [3] (setting [19]); not below 200 µM in data set [3] (setting [20]). In addition, the solubility at 18 h in data set [3] (setting [21]) and in data set [3] (setting [22]) was not below 200 µM in each case.
`CC[C@H](C)[C@H](NC(=O)[C@H](C)NC(=O)CNC(=O)[C@H](Cc1ccccc1)NC(=O)[C@H](CC(N)=O)NC(=O)[C@@H]1CCCN1C(=O)[C@H](CO)NC(=O)[C@H](CO)NC(=O)[C@H](Cc1c[nH]cn1)NC(=O)[C@H](CCCNC(=N)N)NC(=O)[C@H](CC(C)C)NC(=O)[C@H](Cc1ccccc1)NC(=O)[C@H](CCCNC(=N)N)NC(=O)[C@H](C)NC(=O)[C@H](CC(C)C)NC(=O)[C@H](CCCNC(=N)N)NC(=O)[C@H](CCC(N)=O)NC(=O)[C@@H](NC(=O)[C@H](C)NC(=O)[C@@H]1CSSC[C@H](NC(=O)[C@@H](N)CCCCNC(=O)COCCOCCNC(=O)CC[C@H](NC(=O)CCCCCCCCCCCCCCCCCCC(=O)O)C(=O)O)C(=O)N[C@@H](CC(N)=O)C(=O)N[C@@H]([C@@H](C)O)C(=O)N[C@@H](C)C(=O)N[C@@H]([C@@H](C)O)C(=O)N1)[C@@H](C)O)C(=O)N1CCC[C@H]1C(=O)N[C@@H](CO)C(=O)N[C@@H](CO)C(=O)N[C@H](C(=O)N[C@@H](CC(N)=O)C(=O)N[C@H](C(=O)NCC(=O)N[C@@H](CO)C(=O)N[C@@H](CC(N)=O)C(=O)N[C@H](C(=O)N[C@@H](Cc1ccc(O)cc1)C(N)=O)[C@@H](C)O)C(C)C)[C@@H](C)O` [Example 82] (H-K([AEEA-γGlu-C20 diacid])CNTATCATQRLARFLRHSSPNFGAIPSSTNVGSNTY-NH2; disulfide 2-7; N-terminus assumed): the IC50 was 0.636 nM in data set [1], 143 nM at rat calcitonin receptor and 88.8 nM in data set [5]. In addition, the “Ratio hCT/hAmylin binding” value in data set [1] (setting [6]) is given as 139.6; in data set [1] (setting [7]), 139.6; in data set [1] (setting [8]), 139.6; in data set [1] (Table 5c, selectivity, hCTR bind IC50 / hAmylin-R bind IC50) it was 139.6; in data set [1] (setting [9]), 139.6; in data set [1] (setting [10]), 139.6. Besides, the “Ratio hCT/hAmylin binding” value in data set [1] (setting [11]) came out at 139.6. Also, the “Ratio hCT/hAmylin funct.” value in data set [2] (setting [12]), in data set [2] (setting [13]) and in data set [2] (setting [14]) was 59.2 throughout. The EC50 in data set [2] amounted to 0.215 nM; in data set [4] it was 12.7 nM. Also, the solubility at 18 h in data set [3] (setting [15]), in data set [3] (setting [16]), in data set [3] (setting [17]), in data set [3] (setting [18]), in data set [3] (setting [19]) and in data set [3] (setting [20]) was not below 200 µM throughout. In addition, the solubility at 18 h in data set [3] (setting [21]) and in data set [3] (setting [22]) was not below 200 µM each time.
